# Experiments:
# [1] = system: pilocarpine-induced seizures; experiment: pilocarpine model of (temporal lobe) epilepsy; type: in vivo
# Procedure: Isolated CBD was injected intra-peritoneally (IP) in the standard vehicle (1:1:18 ethanol:Cremophor:0.9% w/v NaCl) at doses of 50, 100 and 200 mg/kg alongside animals that received vehicle alone at a matched volume. 15 minutes later methylscopolamine (1 mg/kg; to reduce peripheral muscarinic effects of pilocarpine) was administered followed, 45 minutes later by pilocarpine (380 mg/kg, IP) administration.
# [2] = system: institutionalized children not responding to standard treatment; conditions: 5 institutionalized children not responding to phenobarbital and phenoytin; cited from earlier work
# epileptic patients = conditions: 200-300 mg of cannabidiol per day in addition to standard antiepileptic drugs; 12 epileptic patients; cited from earlier work
# [3] = system: seizure frequency in a single patient; conditions: 900-1200 mg of cannabidiol a day for 10 months; cited from earlier work
# grand mal patients = conditions: 200-300 mg of cannabidiol plus regular medication; cited from earlier work
# [4] = CBD 0 mg/kg, Phenobarbitol 10 mg/kg
# [5] = CBD 0 mg/kg, Phenobarbitol 20 mg/kg
# [6] = CBD 0 mg/kg, Phenobarbitol 40 mg/kg
# [7] = significance of effect, pilocarpine model
# [8] = CBD 100 mg/kg, Phenobarbitol 0 mg/kg
smiles,measurement,setting,value
"CCC1(c2ccccc2)C(=O)NC(=O)NC1=O [Phenobarbitol, phenobarbital]",Onset latency,[1]; [4],800 s
same,Seizure free (%),[1]; [4],25%
same,Onset latency,[1]; [5],900 s
same,Seizure free (%),[1]; [5],55%
same,Onset latency,[1]; [6],1800 s
same,Seizure free (%),[1]; [6],75%
"CCCC(CCC)C(=O)O [Valproate, valproate]",ALL EPISODES Mean duration of episodes,[1]; [7],* (* = p < 0.05)
same,ALL EPISODES Mean number of episodes,[1]; [7],** (** = p < 0.01)
same,ALL EPISODES Mean severity of episodes,[1]; [7],** (** = p < 0.01)
same,ALL EPISODES Mean time spent in episodes,[1]; [7],* (* = p < 0.05)
same,ALL EPISODES Percentage episode free,[1]; [7],** (** = p < 0.01)
same,ALL EPISODES Percentage ≥3 episodes,[1]; [7],# (# = p < 0.01)
same,EPISODE 1 Latency,[1]; [7],** (** = p < 0.01)
same,EPISODE 1 Severity,[1]; [7],* (* = p < 0.05)
same,EPISODE 2 Duration,[1]; [7],# (# = p < 0.01)
same,EPISODE 2 Latency,[1]; [7],# (# = p < 0.01)
"CCCCCc1cc(O)c2c(c1)OC(C)(C)[C@@H]1CCC(C)=C[C@@H]21 [THC, tetrahydrocannabinol]",seizure outcome,[2],"One became entirely free of seizures, one became almost completely free of seizures, and the other three did no worse than before"
"C=C(C)[C@@H]1CCC(C)=C[C@H]1c1c(O)cc(CCCCC)cc1O [CBD, cannabidiol]",improvement in seizure frequency,epileptic patients,no significant improvement in seizure frequency
same,seizure frequency,[3],markedly reduced
same,Onset latency,[1]; [8],500 s
same,Seizure free (%),[1]; [8],0%
same,ALL EPISODES Mean severity of episodes,[1]; [7],* (* = p < 0.05)
same,EPISODE 2 Severity,[1]; [7],* (* = p < 0.05)
same,patients who remained unchanged,grand mal patients,1
same,patients who showed complete improvement,grand mal patients,3
same,patients who showed minor improvement,grand mal patients,2
same,patients who showed partial improvement,grand mal patients,2
same,unwanted effect,grand mal patients,mild sedation
